In patent US20120020915A1, “Compounds and Methods for Treating Cancer and Diseases of the Central Nervous System” (QUEENS UNIVERSITY AT KINGSTON, priority 2007, published 2012):
Entries after “also recorded” stand apart in the source; their conditions may differ.

Assays:
HO-1 (rat spleen) = biological target: T1, HO-1 (rat spleen) (Rattus norvegicus, UniProt P06762); assay: HO enzymatic activity, rat spleen microsomal fraction (CO formation from methemalbumin); assay type: biochemical; conditions: CO formation from methemalbumin, mean ± SD of replicate experiments, read-out: IC50 HO-1 (rat spleen/μM)
T1 construct: Spleen microsomes were used as a source of HO-1; from tissue; host or cells: spleen microsomal fraction of adult male Sprague-Dawley rats
T1 sequence (P06762 1-289): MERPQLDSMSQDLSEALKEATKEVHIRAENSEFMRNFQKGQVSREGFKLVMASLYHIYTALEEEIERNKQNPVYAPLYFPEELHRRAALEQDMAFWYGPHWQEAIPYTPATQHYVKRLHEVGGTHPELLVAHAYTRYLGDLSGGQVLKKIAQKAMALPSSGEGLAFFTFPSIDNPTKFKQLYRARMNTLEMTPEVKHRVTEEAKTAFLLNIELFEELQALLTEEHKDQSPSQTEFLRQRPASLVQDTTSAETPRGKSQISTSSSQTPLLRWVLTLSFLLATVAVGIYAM

[1] = test system: HCT-116 colorectal carcinoma; assay: Colorectal carcinoma model HCT-116 in SCID mice, tumor growth delay; assay type: in vivo, Mouse (Mus musculus); male SCID; conditions: dosage of 60 mg/kg
From the text: Control groups received the vehicle alone.

[2] = Toxicity / tolerability of QC-56 in SCID mice (pilot study); assay type: in vivo
From the text: IV.I (iii) Bioassay Species and strain: Mouse (Mus musculus); SCID, male Age at dosing initiation: 8 weeks old.
Once tumors became palpable, mice were randomized into experimental groups and the treatment was initiated.

[3] = test system: human metastatic prostate cancer PC-3M cells; assay: Orthotopic PC-3M prostate cancer model in SCID mice, primary tumor and metastases; assay type: in vivo, male SCID; conditions: 32-mouse study
From the text: PC-3 & PC-3M (human prostate carcinoma). The PC-3 human prostate cancer cell line was originally obtained from the American Type Culture Collection (Rockville, Md.). The PC-3M cell line was kindly provided by Dr. Issac (MD Anderson Cancer Center). This cell variant was derived from a liver metastasis produced by the parental PC-3 cells growing in the spleen of a nude mouse [Pettaway C A, Pathak S, Greene G. et al. Selection of highly metastatic variants of different human prostate carcinomas utilizing orthotopic implantation in nude mice. Clin Cancer Res 1996; 2:1627-36].
Cell cultures were maintained in 5% CO2/95% air at 37° C. SKMEL-V (human melanoma cells). SKMEL-V cells were derived from SKMEL-24 cells (ATCC) by overexpression of mouse VEGF.
Exponentially growing cells were harvested using a brief exposure to 0.25% trypsins:0.1% EDTA solution (w/v).
Mice were anesthesized with isofluorane given by inhalation and placed in a supine position. Betadine and 75% Ethanol was used to clean the skin of abdomen. A low midline incision was made and the prostate was exposed. Fifty microliters of HBSS containing 1×10^6 cells was injected into a lateral lobe of the prostate. […]
Primary tumors in the prostate were excised, measured, and weighed. […]
The in vivo data was analyzed using the Mann-Whitney U test.

[4] = test system: human pancreatic tumor cells; assay: Cell proliferation assay ([3H] thymidine incorporation), pancreatic tumor cells; assay type: cell-based; conditions: 6.5 μM, 18 h
rat C6 glioma cells = assay: Cell proliferation assay ([3H] thymidine incorporation), C6 glioma cells; assay type: cell-based; conditions: 6.5 μM, 18 h, hHO-1 transfected rat C6 glioma cells; hydrochloride
Procedure: Rat C6 glioma cells were cultivated in high glucose DMEM supplemented with 10% heat-inactivated fetal bovine serum, […] glutamine, and penicillin-streptomycin (50 U/mL and 50 μg/in L, respectively). […] All cultures were incubated at 37° C. in humidified 95% air-5% CO2.
Cells were seeded in 24-well plates at 1×10^6 cells/mL/well. Upon reaching >90% confluence, cells in each well were transiently transfected with 1.6 μg of plasmid DNA-Lipofectamine 2000 complex using Lipofectamine 2000 method according to manufacturer instructions (Invitrogen). 1.6 μg of plasmid DNA and 4 μL of Lipofectamine 2000 reagent were diluted individually in 100 μL opti-MEM I and incubated for 5 minutes at room temperature with gentle mixing. […]
Cell proliferation was determined by [^3H] thymidine incorporation: Cells were plated in 24-well plates at 10^6 cells/mL/well in complete medium. […] The cells were trypsinized and collected, air-dried on 21 mm glass microfibre filters (Whatman International Ltd., Maidstone, England) and analyzed by scintillation counting in a Wallac-Liquid Scintillator Counter (Perkin Elmer Life Sciences, Boston, Mass., USA). [^3H] thymidine incorporation was expressed as counts per min (cpm) per mL.

SMILES: Cl.FC[C@@H]1CO[C@@](CCc2ccc(Cl)cc2)(Cn2ccnc2)O1 [QC-47, (2R,4S)-1-{2-[2-(4-Chlorophenyl)ethyl]-4-fluoromethyl-[1,3]dioxolan-2-ylmethyl}-1H-imidazole hydrochloride]
- IC50 (HO-1 (rat spleen)): 6 ± 3 µM

SMILES: Brc1ccc(CCC2(Cn3ccnc3)OCCO2)cc1.Cl [QC-56, 1-((2-(2-(4-Bromophenyl)ethyl)-1,3-dioxolan-2-yl)methyl)-1H-imidazole hydrochloride]
- mortality [1]: not
- tolerability after multiple administrations ([2]; 50 mg/kg): well tolerated
- tolerability at repeated doses ([2]; 30 and 60 mg/kg, intraperitoneal, hydrochloride): well tolerated at repeated doses of 30 and 60 mg/kg with minor changes in body weights with no apparent toxicity; also recorded: well tolerated
- toxic single dose ([2]; intraperitoneally, single dose): ≥ 100 mg/kg
- formation of macroscopic lymph node metastases [3]: complete inhibition
- 3H-thymidine incorporation, non-transfected cells ([4]; compared to untreated cells, hydrochloride): significantly attenuated ^3H-thymidine incorporation; also recorded: marked reduction in the rate of cellular proliferation
- 3H-thymidine incorporation, hHO-1 transfected cells ([4]; hHO-1 transfected human pancreatic tumor cells): significantly attenuated the effects of hHO-1 transfection on ^3H-thymidine incorporation
- 3H-thymidine incorporation, hHO-1 transfected cells (rat C6 glioma cells): significantly attenuated the effects of hHO-1 transfection on ^3H-thymidine incorporation; also recorded: this rate of proliferation was attenuated
